Measured values published in publication PMC11451537, “P2X7 receptors exhibit at least three modes of allosteric antagonism” (Science Advances, 2024).

Molecular target: T1, hP2X4 (Homo sapiens, UniProt Q99571)
T1 sequence (Q99571 1-388): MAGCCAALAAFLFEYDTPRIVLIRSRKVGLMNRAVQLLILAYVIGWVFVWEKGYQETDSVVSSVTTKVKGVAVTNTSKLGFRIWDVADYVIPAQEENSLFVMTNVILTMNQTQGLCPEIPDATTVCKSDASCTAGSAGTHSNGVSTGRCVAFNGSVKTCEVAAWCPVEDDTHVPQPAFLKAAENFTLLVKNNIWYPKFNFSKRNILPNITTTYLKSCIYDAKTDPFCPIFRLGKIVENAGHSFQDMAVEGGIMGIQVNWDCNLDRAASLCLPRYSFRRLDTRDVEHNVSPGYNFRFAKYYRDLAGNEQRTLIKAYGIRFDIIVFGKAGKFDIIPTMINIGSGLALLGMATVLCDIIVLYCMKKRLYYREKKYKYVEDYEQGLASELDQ
Assay: TEVC inhibition dose-response (IC50), hP2X4 in Xenopus laevis oocytes
Format: cell-based
Settings: 50 μM ATP, mean ± SD, triplicate
Excerpt: To evaluate the inhibitory response of an antagonist for a dilution series, an initial excitatory signal was evoked at a subtype-specific concentration of ATP. Next, the antagonist was applied at a test concentration for 60 s and then coapplied at the same test concentration of the antagonist with the identical subtype-specific concentration of ATP. The antagonized signal was then normalized against the preceding excitatory signal evoked by ATP for each individual oocyte tested. The pre- and post-antagonist signals were evoked by 10 μM ATP for hP2X1, 10 μM ATP for hP2X2, 1 μM ATP for hP2X3, 50 μM ATP for hP2X4, and 100 μM ATP for P2X7. For the K297V mutation in rP2X7, pre- and post-antagonist signals were evoked by 300 μM ATP. Each dataset was then fit to a nonlinear regression named “[inhibitor] vs. response – Variable slope (four parameters)” in GraphPad Prism 9 to produce a sigmoidal curve and afford an IC50 value. Each singular condition was used to generate an average which is reported plus or minus its SD between three discrete trials.

O=S(=O)(O)c1ccc(N=C2C=CC(=C(c3ccc(Nc4ccc(S(=O)(=O)O)cc4)cc3)c3ccc(Nc4ccc(S(=O)(=O)O)cc4)cc3)C=C2)cc1 [methyl blue]
IC50: 51 ± 6 µM
